In ChEMBL document CHEMBL1671662, “In vitro activities of telavancin and six comparator agents against anaerobic bacterial isolates” (2009):
Converted amounts (≈) assume the structure as drawn.

Experiments:
Type in all cases: functional
[1] = system: Peptostreptococcus anaerobius; experiment: Antibacterial activity against Peptostreptococcus anaerobius by CLSI M11-A6 agar dilution method
[2] = system: Clostridium tertium; experiment: Antibacterial activity against Clostridium tertium by CLSI M11-A6 agar dilution method
[3] = system: Paeniclostridium sordellii; experiment: Antibacterial activity against Clostridium sordellii by CLSI M11-A6 agar dilution method; details: Paraclostridium sordellii
[4] = system: Prevotella corporis; experiment: Antibacterial activity against Prevotella corporis by CLSI M11-A6 agar dilution method
[5] = system: Streptococcus constellatus; experiment: Antibacterial activity against Streptococcus constellatus by CLSI M11-A6 agar dilution method
[6] = system: Streptococcus intermedius; experiment: Antibacterial activity against Streptococcus intermedius by CLSI M11-A6 agar dilution method
[7] = system: Ruminococcus torques; experiment: Antibacterial activity against Ruminococcus torques by CLSI M11-A6 agar dilution method; details: Mediterraneibacter torques
[8] = system: Clostridium leptum; experiment: Antibacterial activity against Clostridium leptum by CLSI M11-A6 agar dilution method
[9] = system: Parabacteroides merdae; experiment: Antibacterial activity against Parabacteroides merdae by CLSI M11-A6 agar dilution method
[10] = system: Peptoniphilus asaccharolyticus; experiment: Antibacterial activity against Peptoniphilus asaccharolyticus by CLSI M11-A6 agar dilution method
[11] = system: Bifidobacterium breve; experiment: Antibacterial activity against Bifidobacterium breve by CLSI M11-A6 agar dilution method
[12] = system: Bacteroides thetaiotaomicron; experiment: Antibacterial activity against Bacteroides thetaiotaomicron by CLSI M11-A6 agar dilution method
[13] = system: Anaerococcus tetradius; experiment: Antibacterial activity against Anaerococcus tetradius by CLSI M11-A6 agar dilution method
[14] = system: Bifidobacterium dentium; experiment: Antibacterial activity against Bifidobacterium dentium by CLSI M11-A6 agar dilution method
[15] = system: Bilophila wadsworthia; experiment: Antibacterial activity against Bilophila wadsworthia by CLSI M11-A6 agar dilution method
[16] = system: Prevotella intermedia; experiment: Antibacterial activity against Prevotella intermedia by CLSI M11-A6 agar dilution method
[17] = system: Parvimonas micra; experiment: Antibacterial activity against Peptostreptococcus micros by CLSI M11-A6 agar dilution method
[18] = system: Bifidobacterium bifidum; experiment: Antibacterial activity against Bifidobacterium bifidum by CLSI M11-A6 agar dilution method
[19] = system: Clostridium beijerinckii; experiment: Antibacterial activity against Clostridium beijerinckii by CLSI M11-A6 agar dilution method
[20] = system: Prevotella buccae; experiment: Antibacterial activity against Prevotella buccae by CLSI M11-A6 agar dilution method; details: Segatella buccae
[21] = system: Ruminococcus sp.; experiment: Antibacterial activity against Ruminococcus sp. by CLSI M11-A6 agar dilution method
[22] = system: Bifidobacterium longum; experiment: Antibacterial activity against Bifidobacterium longum by CLSI M11-A6 agar dilution method
[23] = system: Paraclostridium bifermentans; experiment: Antibacterial activity against Clostridium bifermentans by CLSI M11-A6 agar dilution method
[24] = system: Catenibacterium mitsuokai; experiment: Antibacterial activity against Catenibacterium mitsuokai by CLSI M11-A6 agar dilution method
[25] = system: Clostridium spiroforme; experiment: Antibacterial activity against Clostridium spiroforme by CLSI M11-A6 agar dilution method; details: Thomasclavelia spiroformis
[26] = system: Ruminococcus lactaris; experiment: Antibacterial activity against Ruminococcus lactaris by CLSI M11-A6 agar dilution method
[27] = system: Propionibacterium propionicum; experiment: Antibacterial activity against Propionibacterium propionicus by CLSI M11-A6 agar dilution method; details: Arachnia propionica
[28] = system: Clostridium bartlettii; experiment: Antibacterial activity against Clostridium bartlettii by CLSI M11-A6 agar dilution method; details: Intestinibacter bartlettii
[29] = system: Clostridium glycolicum; experiment: Antibacterial activity against Clostridium glycolicum by CLSI M11-A6 agar dilution method; details: Terrisporobacter glycolicus
[30] = system: Prevotella melaninogenica; experiment: Antibacterial activity against Prevotella melaninogenica by CLSI M11-A6 agar dilution method
[31] = system: Bacteroides fragilis; experiment: Antibacterial activity against Bacteroides fragilis by CLSI M11-A6 agar dilution method
[32] = system: Enterocloster clostridioformis; experiment: Antibacterial activity against Clostridium clostridioforme by CLSI M11-A6 agar dilution method
[33] = system: Phocaeicola vulgatus; experiment: Antibacterial activity against Bacteroides vulgatus by CLSI M11-A6 agar dilution method
[34] = system: Prevotella disiens; experiment: Antibacterial activity against Prevotella P disiens by CLSI M11-A6 agar dilution method
[35] = system: Clostridium scindens; experiment: Antibacterial activity against Clostridium scindens by CLSI M11-A6 agar dilution method
[36] = system: Clostridium perfringens; experiment: Antibacterial activity against Clostridium perfringens by CLSI M11-A6 agar dilution method
[37] = system: Ruminococcus flavefaciens; experiment: Antibacterial activity against Ruminococcus flavefaciens by CLSI M11-A6 agar dilution method
[38] = system: Clostridium butyricum; experiment: Antibacterial activity against Clostridium butyricum by CLSI M11-A6 agar dilution method
[39] = system: [Clostridium] innocuum; experiment: Antibacterial activity against Clostridium innocuum by CLSI M11-A6 agar dilution method
[40] = system: Clostridium celerecrescens; experiment: Antibacterial activity against Clostridium celerecrescens by CLSI M11-A6 agar dilution method; details: Lacrimispora celerecrescens
[41] = system: Ruminococcus gnavus; experiment: Antibacterial activity against Ruminococcus gnavus by CLSI M11-A6 agar dilution method; details: Mediterraneibacter gnavus
[42] = system: Flavonifractor plautii; experiment: Antibacterial activity against Clostridium orbiscindens by CLSI M11-A6 agar dilution method
[43] = system: Odoribacter splanchnicus; experiment: Antibacterial activity against Bacteroides splanchnicus by CLSI M11-A6 agar dilution method

For CCC[C@@H]1C[C@@H](C(=O)N[C@@H]([C@H]2O[C@H](SC)[C@H](O)[C@@H](O)[C@H]2O)[C@H](C)Cl)N(C)C1 [CLINDAMYCIN], the MIC90 [1] was > 128 µg/mL, the MIC90 [2] was 4 µg/mL (≈ 9.41 µM) and the MIC90 [3] was 4 µg/mL (≈ 9.41 µM). For the same molecule, the MIC [4] was ≤ 0.12 µg/mL, the MIC50 [4] was ≤ 0.12 µg/mL and the MIC90 [4] was ≤ 0.12 µg/mL. The MIC90 [5] was 0.5 µg/mL (≈ 1.18 µM), the MIC90 [6] was 0.5 µg/mL (≈ 1.18 µM) and the MIC50 [7] was ≤ 0.12 µg/mL. For the same molecule, the MIC90 [7] was 2 µg/mL (≈ 4.71 µM), the MIC90 [8] was 4 µg/mL (≈ 9.41 µM) and the MIC50 [9] was 2 µg/mL (≈ 4.71 µM). The MIC90 [9] was 64 µg/mL (≈ 151 µM), the MIC90 [10] was > 128 µg/mL and the MIC50 [11] was ≤ 0.12 µg/mL. For the same molecule, the MIC90 [11] was 1 µg/mL (≈ 2.35 µM), the MIC50 [12] was 4 µg/mL (≈ 9.41 µM) and the MIC90 [12] was > 128 µg/mL. The MIC90 [13] was > 128 µg/mL, the MIC50 [14] was ≤ 0.12 µg/mL and the MIC90 [14] was 1 µg/mL (≈ 2.35 µM). For the same molecule, the MIC50 [15] was 0.5 µg/mL (≈ 1.18 µM), the MIC90 [15] was 1 µg/mL (≈ 2.35 µM) and the MIC [16] was ≤ 0.12 µg/mL. For the same molecule, the MIC50 [16] was ≤ 0.12 µg/mL, the MIC90 [16] was ≤ 0.12 µg/mL and the MIC90 [17] was > 128 µg/mL. For the same molecule, the MIC50 [18] was ≤ 0.12 µg/mL, the MIC90 [18] was 1 µg/mL (≈ 2.35 µM) and the MIC90 [19] was 4 µg/mL (≈ 9.41 µM). The MIC [20] was ≤ 0.12 µg/mL, the MIC50 [20] was ≤ 0.12 µg/mL and the MIC90 [20] was ≤ 0.12 µg/mL. The MIC90 [21] was > 128 µg/mL, the MIC50 [22] was ≤ 0.12 µg/mL and the MIC90 [22] was 1 µg/mL (≈ 2.35 µM). For the same molecule, the MIC90 [23] was 4 µg/mL (≈ 9.41 µM), the MIC50 [24] was ≤ 0.12 µg/mL and the MIC90 [24] was 1 µg/mL (≈ 2.35 µM). The MIC90 [25] was 4 µg/mL (≈ 9.41 µM), the MIC50 [26] was ≤ 0.12 µg/mL and the MIC90 [26] was 2 µg/mL (≈ 4.71 µM). The MIC50 [27] was ≤ 0.12 µg/mL, the MIC90 [27] was 1 µg/mL (≈ 2.35 µM) and the MIC90 [28] was 4 µg/mL (≈ 9.41 µM). The MIC90 [29] was 4 µg/mL (≈ 9.41 µM), the MIC [30] was ≤ 0.12 µg/mL and the MIC50 [30] was ≤ 0.12 µg/mL. For the same molecule, the MIC90 [30] was ≤ 0.12 µg/mL, the MIC50 [31] was 0.5 µg/mL (≈ 1.18 µM) and the MIC90 [31] was > 128 µg/mL. For the same molecule, the MIC90 [32] was 2 µg/mL (≈ 4.71 µM), the MIC50 [33] was > 128 µg/mL and the MIC90 [33] was > 128 µg/mL. The MIC [34] was ≤ 0.12 µg/mL, the MIC50 [34] was ≤ 0.12 µg/mL and the MIC90 [34] was ≤ 0.12 µg/mL. For the same molecule, the MIC90 [35] was 4 µg/mL (≈ 9.41 µM), the MIC50 [36] was 0.5 µg/mL (≈ 1.18 µM) and the MIC90 [36] was 2 µg/mL (≈ 4.71 µM). For the same molecule, the MIC50 [37] was ≤ 0.12 µg/mL, the MIC90 [37] was 2 µg/mL (≈ 4.71 µM) and the MIC90 [38] was 4 µg/mL (≈ 9.41 µM). For the same molecule, the MIC50 [39] was 1 µg/mL (≈ 2.35 µM), the MIC90 [39] was > 128 µg/mL and the MIC90 [40] was 4 µg/mL (≈ 9.41 µM). The MIC50 [41] was ≤ 0.12 µg/mL, the MIC90 [41] was 0.25 µg/mL (≈ 0.588 µM) and the MIC90 [42] was 4 µg/mL (≈ 9.41 µM). For the same molecule, the MIC50 [43] was ≤ 0.12 µg/mL and the MIC90 [43] was > 128 µg/mL.
